14 molecules from PubChem BioAssay (NCI) can be followed below.

Among the test systems are RXF 393 renal; OVCAR-8 ovarian; OVCAR-3 ovarian; BT-549 breast; UACC-257 melanoma; SN12C renal; SK-OV-3 ovarian; HL-60(TB) leukemia; SK-MEL-5 melanoma; NCI-H23 lung.
What all share (experiment): NCI-60 cell line screen, 48 h

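Cultured in 96-well plates, cells were exposed to test compound for 48 hours across five concentrations. Definition used: TGI = concentration required for complete inhibition of growth.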

Regarding `Cc1ccc(S(=O)(=O)c2c(O)c3ccccc3n(C)c2=O)cc1`, the TGI in the experiment with RXF 393 renal, with OVCAR-8 ovarian, with OVCAR-3 ovarian, with BT-549 breast, in the experiment with UACC-257 melanoma and with SN12C renal was greater than 100 µM each time. Moreover, the TGI with SK-OV-3 ovarian, with HL-60(TB) leukemia, in the experiment with SK-MEL-5 melanoma and with NCI-H23 lung was greater than 100 µM each time.
In the case of `Cc1cc(=O)oc2cc(O)ccc12`, the TGI with RXF 393 renal, in the experiment on OVCAR-8 ovarian, in the experiment on OVCAR-3 ovarian, with BT-549 breast, with UACC-257 melanoma and in the experiment with SN12C renal was greater than 100 µM in each case. Further, the TGI with SK-OV-3 ovarian, in the experiment with HL-60(TB) leukemia, in the experiment with SK-MEL-5 melanoma and with NCI-H23 lung was greater than 100 µM throughout.
As for `Cc1ccc(C(=O)/C(C#N)=C/Nc2c(C)n(C)n(-c3ccccc3)c2=O)cc1`, the TGI in the experiment on RXF 393 renal, in the experiment with OVCAR-3 ovarian, in the experiment on BT-549 breast, in the experiment with UACC-257 melanoma, with SN12C renal and in the experiment with SK-OV-3 ovarian was greater than 100 µM throughout. In addition, the TGI in the experiment with HL-60(TB) leukemia, in the experiment on SK-MEL-5 melanoma and in the experiment with NCI-H23 lung was greater than 100 µM throughout.
As for `O=S1(=O)c2ccccc2NC(=S)CC1c1ccccc1` (centres undefined), the TGI in the experiment with RXF 393 renal, in the experiment with OVCAR-8 ovarian, in the experiment on OVCAR-3 ovarian, in the experiment with BT-549 breast, with UACC-257 melanoma and with SN12C renal was greater than 100 µM throughout. The TGI in the experiment on SK-OV-3 ovarian, in the experiment with HL-60(TB) leukemia, in the experiment with SK-MEL-5 melanoma and in the experiment with NCI-H23 lung was greater than 100 µM each time.
With `Oc1ccc(CCc2cc(O)cc(O)c2)cc1`, the TGI in the experiment with RXF 393 renal, with OVCAR-8 ovarian, in the experiment on OVCAR-3 ovarian, with BT-549 breast, with UACC-257 melanoma and with SN12C renal was greater than 100 µM each time. The TGI in the experiment on SK-OV-3 ovarian, in the experiment with HL-60(TB) leukemia, in the experiment on SK-MEL-5 melanoma and with NCI-H23 lung was greater than 100 µM each time.
In the case of `COc1ccc2nc3cc(Cl)ccc3c(NCCNCCCNC(=O)c3cc(-c4ccccc4)nc4ccccc34)c2c1`, the TGI in the experiment with RXF 393 renal, in the experiment with OVCAR-8 ovarian, with OVCAR-3 ovarian, in the experiment on BT-549 breast, with UACC-257 melanoma and in the experiment with SN12C renal was greater than 100 µM throughout. Also, the TGI with SK-OV-3 ovarian, in the experiment on HL-60(TB) leukemia, with SK-MEL-5 melanoma and with NCI-H23 lung was greater than 100 µM throughout.
As for `CC(=O)O[C@H]1C(=O)[C@@]2(C)[C@H]([C@H](OC(=O)c3ccccc3)[C@]3(O)C[C@H](OC(=O)[C@H](O)[C@@H](NC(=O)CC(C)(C)C)c4ccccc4)C(C)=C1C3(C)C)C1(OC(C)=O)CO[C@@H]1C[C@@H]2O` (some centres undefined), the TGI with RXF 393 renal is 0.148 µM; in the experiment with OVCAR-8 ovarian it was greater than 5.8 µM; in the experiment with BT-549 breast, greater than 10 µM; in the experiment with UACC-257 melanoma, greater than 10 µM; with SN12C renal, greater than 10 µM; in the experiment with SK-OV-3 ovarian, greater than 10 µM. The TGI with SK-MEL-5 melanoma and in the experiment with NCI-H23 lung was greater than 10 µM each time.
Consider `CC(=O)c1cc2c(s1)C(=O)c1ccccc1C2=O`, for which the TGI stood at 28 µM in the experiment with RXF 393 renal; 5.98 µM in the experiment on OVCAR-8 ovarian; 11.1 µM in the experiment on OVCAR-3 ovarian; 7.75 µM in the experiment with BT-549 breast; 3.15 µM in the experiment with UACC-257 melanoma; 16.3 µM in the experiment on SN12C renal. Moreover, the results for the TGI in the experiment on SK-OV-3 ovarian, in the experiment with HL-60(TB) leukemia and with SK-MEL-5 melanoma were greater than 80.3 µM, greater than 100 µM and 0.588 µM, respectively.
Take `c1ccc2c(c1)nc1n2CCSC1`: the TGI in the experiment with RXF 393 renal, with OVCAR-3 ovarian, in the experiment with BT-549 breast, in the experiment on UACC-257 melanoma, in the experiment with SN12C renal and with SK-OV-3 ovarian was greater than 100 µM throughout. The TGI with HL-60(TB) leukemia, in the experiment on SK-MEL-5 melanoma and in the experiment with NCI-H23 lung was greater than 100 µM in each case.
In the case of `CC1(C)Oc2ccc(NC(=O)CCC(N)C(=O)O)cc2O1` (centres undefined), the TGI in the experiment with RXF 393 renal, in the experiment on OVCAR-8 ovarian, in the experiment on OVCAR-3 ovarian, in the experiment with BT-549 breast, with SN12C renal and in the experiment on SK-OV-3 ovarian was greater than 100 µM in each case. Moreover, the TGI in the experiment with HL-60(TB) leukemia, in the experiment with SK-MEL-5 melanoma and in the experiment with NCI-H23 lung was greater than 100 µM each time.
For the molecule `O=c1[nH]nc(Cc2ccccc2)n1-n1cnnc1`, the TGI in the experiment with RXF 393 renal, in the experiment on OVCAR-8 ovarian, with OVCAR-3 ovarian, with BT-549 breast, in the experiment with UACC-257 melanoma and with SN12C renal was greater than 100 µM throughout. The TGI with SK-OV-3 ovarian, with SK-MEL-5 melanoma and in the experiment with NCI-H23 lung was greater than 100 µM each time.
`CCO/C(O)=C(/C(=N)N1CCCC1)C(=O)Nc1cccc(C(F)(F)F)c1`: the TGI is 53.6 µM in the experiment on RXF 393 renal; greater than 100 µM in the experiment with OVCAR-8 ovarian; greater than 100 µM in the experiment with OVCAR-3 ovarian; greater than 100 µM in the experiment with BT-549 breast; greater than 100 µM with UACC-257 melanoma; greater than 100 µM in the experiment on SN12C renal. Besides, the TGI with SK-OV-3 ovarian, with HL-60(TB) leukemia and with NCI-H23 lung was greater than 100 µM throughout.
`Cn1cnc2c(sc3nc4ccccc4n32)c1=N`: the TGI in the experiment on RXF 393 renal, in the experiment on OVCAR-8 ovarian, in the experiment with OVCAR-3 ovarian, in the experiment with BT-549 breast, in the experiment with UACC-257 melanoma and in the experiment with SK-OV-3 ovarian was greater than 100 µM each time. In addition, the TGI with HL-60(TB) leukemia, in the experiment on SK-MEL-5 melanoma and in the experiment with NCI-H23 lung was greater than 100 µM throughout.
On to `COc1cccc(-c2cc(=O)c3ccc(C)nc3[nH]2)c1`, for which the TGI in the experiment on RXF 393 renal is greater than 100 µM; in the experiment with OVCAR-8 ovarian it was greater than 100 µM; with BT-549 breast, greater than 39.7 µM; with SN12C renal, greater than 100 µM; with SK-OV-3 ovarian, greater than 60.6 µM; with HL-60(TB) leukemia, 0.0532 µM. Besides, the TGI in the experiment with SK-MEL-5 melanoma is 2.47 µM; in the experiment on NCI-H23 lung it was greater than 100 µM.
